Experimental data reported in patent US4740502A, “Semisynthetic erythromycin antibiotics” (Abbott Laboratories, priority 1986, dated 1988).
Values after ≈ are worked out from the molar mass of the structure shown. Each block holds one molecule with its values, some of them ahead of it.

How the values were obtained:
[1] = tested on: stomach, duodenum and jejunum; experiment: Gastrointestinal motility (stimulating activity) in a dog model, strain gauges
Method: Contractions in the gut were recorded with surgically implanted strain gauges. The contractile scores were determined according to the method of Jacoby, et al., as described in "Gastrointestinal Actions of Metoclopramide," Gastroenterology, Vol. 52, No. 4 (1967), pp. 676-684 by giving a numerical score to the height of each recorded contraction in the one hour period after administration of the test compound. […] Ratios were calculated for the stomach, duodenum and jejunum, and a final arithmetic mean index was calculated and reported in Table I.

E. coli H560 = experiment: Agar dilution MIC, E. coli H560; conditions: Escherichia coli, H560, 22 h
Acinetobacter SP CMX 669 = experiment: Agar dilution MIC, Acinetobacter SP CMX 669; conditions: SPCMX669, 22 h
[2] = tested on: Pseudomonas aeruginosa K799/WT; experiment: Agar dilution MIC, Pseudomonas aeruginosa K799/WT; conditions: 22 h
[3] = tested on: Pseudomonas aeruginosa 5007; experiment: Agar dilution MIC, Pseudomonas aeruginosa 5007; conditions: Pseudomonas aeruginosa, 5007, 22 h
Staph. epidermidis 3519 = experiment: Agar dilution MIC, Staph. epidermidis 3519; conditions: Staphylococcus epidermidis, 3519, 22 h
Strep. pyogenes 930 = experiment: Agar dilution MIC, Strep. pyogenes 930; conditions: Streptococcus pyogenes, 930, 22 h
[4] = tested on: Pseudomonas aeruginosa K799/61; experiment: Agar dilution MIC, Pseudomonas aeruginosa K799/61; conditions: K799/61, 22 h
[5] = tested on: Providencia stuartii CMX 640; experiment: Agar dilution MIC, Providencia stuartii CMX 640; conditions: CMX640, 22 h
[6] = tested on: Ent. aerogenes ATCC 10348; experiment: Agar dilution MIC, Ent. aerogenes ATCC 10348; conditions: Klebsiella aerogenes, ATCC10348, 22 h
Strep. faecium ATCC 8043 = experiment: Agar dilution MIC, Strep. faecium ATCC 8043; conditions: Enterococcus faecium, ATCC8043, 22 h
[7] = tested on: Klebsiella pneumoniae 8045; experiment: Agar dilution MIC, Klebsiella pneumoniae 8045; conditions: Klebsiella pneumoniae, 8045, 22 h
E. coli JUHL = experiment: Agar dilution MIC, E. coli JUHL; conditions: Escherichia coli, 22 h
E. coli KNK 437 = experiment: Agar dilution MIC, E. coli KNK 437; conditions: Escherichia coli, KNK437, 22 h
Micrococcus luteus 4698 = experiment: Agar dilution MIC, Micrococcus luteus 4698; conditions: Micrococcus luteus, 4698, 22 h
Pseudomonas cepacia 2961 = experiment: Agar dilution MIC, Pseudomonas cepacia 2961; conditions: Burkholderia cepacia, 2961, 22 h
E. coli SS = experiment: Agar dilution MIC, E. coli SS; conditions: Escherichia coli, 22 h
Strep. bovis A5169 = experiment: Agar dilution MIC, Strep. bovis A5169; conditions: Streptococcus equinus, A5169, 22 h
[8] = tested on: Staph. epidermidis 3519 RARI; experiment: Agar dilution MIC, Staph. epidermidis 3519 RARI; conditions: Staphylococcus epidermidis, 22 h
Micrococcus luteus 9341 = experiment: Agar dilution MIC, Micrococcus luteus 9341; conditions: Micrococcus luteus, 9341, 22 h
Staph. aureus CMX 686B = experiment: Agar dilution MIC, Staph. aureus CMX 686B; conditions: Staphylococcus aureus, CMX686B, 22 h
E. coli DC-2 = experiment: Agar dilution MIC, E. coli DC-2; conditions: Escherichia coli, DC2, 22 h
[9] = tested on: Strep. agalactiae CMX 508; experiment: Agar dilution MIC, Strep. agalactiae CMX 508; conditions: Streptococcus agalactiae, CMX508, 22 h
Staph. aureus ATCC 6538P = experiment: Agar dilution MIC, Staph. aureus ATCC 6538P; conditions: Staphylococcus aureus, ATCC6538P, 22 h
Staph. aureus A5177 = experiment: Agar dilution MIC, Staph. aureus A5177; conditions: Staphylococcus aureus, A5177, 22 h
Strep. pyogenes EES61 = experiment: Agar dilution MIC, Strep. pyogenes EES61; conditions: Streptococcus pyogenes, EES61, 22 h
[10] = tested on: Pseudomonas aeruginosa BMH10; experiment: Agar dilution MIC, Pseudomonas aeruginosa BMH10; conditions: BMH10, 22 h
[11] = 4 mg/kg intravenously, one hour period, mean of stomach, duodenum and jejunum ratios to erythromycin A lactobionate

Gastrointestinal Motility Index ([1]; in vivo, iv, 4 mg/kg): 2.47
Structure (SMILES): CC[C@H]1OC(=O)[C@H](C)[C@@H](O[C@H]2C[C@@](C)(OC)[C@@H](O)[C@H](C)O2)[C@H](C)[C@@H](O[C@@H]2O[C@H](C)C[C@H](N(C)C)[C@H]2O)[C@](C)(O)C[C@@H](C)C(=O)[C@H](C)[C@@H](O)[C@H]1C [Ery B, erythromycin B]

Gastrointestinal Motility Index ([1]; in vivo, iv, 4 mg/kg): 0.37
stimulation of the gastrointestinal tissues ([1]; in vivo, iv, 4 mg/kg): less of a gastrointestinal response
Structure (SMILES): CC[C@H]1OC(=O)[C@H](C)[C@@H](O[C@H]2C[C@@](C)(OC)[C@@H](O)[C@H](C)O2)[C@H](C)[C@@H](O[C@@H]2O[C@H](C)C[C@H](N(C)C)[C@H]2O)[C@](C)(OC)C[C@@H](C)C(=O)[C@H](C)[C@@H](O)[C@]1(C)O [6-O--Me--Ery A, 6-O-methyl erythromycin A]

Structure (SMILES): CC[C@H]1OC(=O)[C@H](C)[C@@H](O[C@H]2C[C@@](C)(OC)[C@@H](O)[C@H](C)O2)[C@H](C)[C@@H](O[C@@H]2O[C@H](C)C[C@H](N(C)C)[C@H]2O)[C@](C)(O)C[C@@H](C)C(=O)[C@H](C)[C@@H](O)[C@]1(C)O [Erythromycin A]
MIC (E. coli H560): 6.2 µg/mL (≈ 8.45 µM)
MIC (Acinetobacter SP CMX 669): 3.1 µg/mL (≈ 4.22 µM)
MIC [2]: 50 µg/mL (≈ 68.1 µM)
MIC [3]: > 100 µg/mL
MIC (Staph. epidermidis 3519): 0.1 µg/mL (≈ 0.136 µM)
MIC (Strep. pyogenes 930): > 100 µg/mL
MIC [4]: 1.56 µg/mL (≈ 2.13 µM)
MIC [5]: > 100 µg/mL
MIC [6]: 50 µg/mL (≈ 68.1 µM)
MIC (Strep. faecium ATCC 8043): 0.05 µg/mL (≈ 0.0681 µM)

Structure (SMILES): CC[C@H]1OC(=O)[C@H](C)[C@@H](O[C@H]2C[C@@](C)(OC)[C@@H](OC(N)=O)[C@H](C)O2)[C@H](C)[C@@H](O[C@@H]2O[C@H](C)C[C@H](N(C)C)[C@H]2O)[C@](C)(O)C[C@@H](C)C(=O)[C@H](C)[C@@H](O)[C@]1(C)O [Example 4, Erythromycin A-4"-carbamate]
Gastrointestinal Motility Index [1, 11]: 0.11

Structure (SMILES): CC[C@H]1OC(=O)[C@H](C)[C@@H](O[C@H]2C[C@@](C)(OC)[C@@H](O)[C@H](C)O2)[C@H](C)[C@@H](O[C@@H]2O[C@H](C)C[C@H](N(C)C)[C@H]2O)[C@](C)(O)C[C@@H](C)C(=O)[C@H](C)[C@@H](O)[C@H]1C [erythromycin B lactobionate]
stimulation of the gastrointestinal tissues ([1]; in vivo, iv, 4 mg/kg): pronounced stimulation of the stomach, duodenum, jejunum and ileum

Structure (SMILES): CC[C@H]1OC(=O)[C@H](C)[C@@H](O[C@H]2C[C@@](C)(OC)[C@@H](OC(N)=O)[C@H](C)O2)[C@H](C)[C@@H](O[C@@H]2O[C@H](C)C[C@H](N(C)C)[C@H]2O)[C@](C)(OC)C[C@@H](C)C(=O)[C@H](C)[C@@H](O)[C@]1(C)O [Example 1, 6-O-methyl-erythromycin A-4"-carbamate]
MIC (E. coli H560): 6.2 µg/mL (≈ 7.84 µM)
MIC (Acinetobacter SP CMX 669): 6.2 µg/mL (≈ 7.84 µM)
MIC [2]: 50 µg/mL (≈ 63.2 µM)
MIC [3]: 50 µg/mL (≈ 63.2 µM)
MIC [7]: 50 µg/mL (≈ 63.2 µM)
MIC (Staph. epidermidis 3519): 0.05 µg/mL (≈ 0.0632 µM)
MIC (Strep. pyogenes 930): > 100 µg/mL
MIC (E. coli JUHL): 12.5 µg/mL (≈ 15.8 µM)
MIC (E. coli KNK 437): 25 µg/mL (≈ 31.6 µM)
Gastrointestinal Motility Index [1, 11]: 0.03
MIC (Micrococcus luteus 4698): 0.39 µg/mL (≈ 0.493 µM)
MIC (Pseudomonas cepacia 2961): 50 µg/mL (≈ 63.2 µM)
MIC (E. coli SS): 0.2 µg/mL (≈ 0.253 µM)
MIC (Strep. bovis A5169): 0.02 µg/mL (≈ 0.0253 µM)
MIC [4]: 1.56 µg/mL (≈ 1.97 µM)
MIC [8]: 0.1 µg/mL (≈ 0.126 µM)
MIC (Micrococcus luteus 9341): 0.02 µg/mL (≈ 0.0253 µM)
MIC (Staph. aureus CMX 686B): 0.05 µg/mL (≈ 0.0632 µM)
MIC (E. coli DC-2): 50 µg/mL (≈ 63.2 µM)
MIC [5]: 100 µg/mL (≈ 126 µM)
MIC [9]: 0.02 µg/mL (≈ 0.0253 µM)
MIC (Staph. aureus ATCC 6538P): 0.02 µg/mL (≈ 0.0253 µM)
MIC (Staph. aureus A5177): 0.39 µg/mL (≈ 0.493 µM)
MIC (Strep. pyogenes EES61): 0.01 µg/mL (≈ 0.0126 µM)
MIC [6]: 25 µg/mL (≈ 31.6 µM)
MIC (Strep. faecium ATCC 8043): 0.05 µg/mL (≈ 0.0632 µM)
MIC [10]: 50 µg/mL (≈ 63.2 µM)

Structure (SMILES): CC[C@H]1OC(=O)[C@H](C)[C@@H](O[C@H]2C[C@@](C)(OC)[C@@H](O)[C@H](C)O2)[C@H](C)[C@@H](O[C@@H]2O[C@H](C)C[C@H](N(C)C)[C@H]2O)[C@](C)(O)C[C@@H](C)C(=O)[C@H](C)[C@@H](O)[C@]1(C)O [erythromycin A lactobionate]
stimulation of the gastrointestinal tissues ([1]; in vivo, iv, 4 mg/kg): pronounced stimulation of the stomach, duodenum, jejunum and ileum

Structure (SMILES): CC[C@H]1OC(=O)[C@H](C)[C@@H](O[C@H]2C[C@@](C)(OC)[C@@H](OC(N)=O)[C@H](C)O2)[C@H](C)[C@@H](O[C@@H]2O[C@H](C)C[C@H](N(C)C)[C@H]2O)[C@](C)(O)C[C@@H](C)C(=O)[C@H](C)[C@@H](O)[C@H]1C [Example 2, Erythromycin B-4"-carbamate]
Gastrointestinal Motility Index [1, 11]: 0.17
